We go through 9 molecules from US7326700B2, “Cyclohexenyl phenyl carboxamides tocolytic oxytocin receptor antagonists” (Wyeth, priority 2001, dated 2008).

The target of one assay is T1, human oxytocin receptor (Homo sapiens, UniProt P30559).
T1 construct: host or cells: CHO cells, stably transfected (pcDNA3.1 vector)
T1 sequence (P30559 1-389): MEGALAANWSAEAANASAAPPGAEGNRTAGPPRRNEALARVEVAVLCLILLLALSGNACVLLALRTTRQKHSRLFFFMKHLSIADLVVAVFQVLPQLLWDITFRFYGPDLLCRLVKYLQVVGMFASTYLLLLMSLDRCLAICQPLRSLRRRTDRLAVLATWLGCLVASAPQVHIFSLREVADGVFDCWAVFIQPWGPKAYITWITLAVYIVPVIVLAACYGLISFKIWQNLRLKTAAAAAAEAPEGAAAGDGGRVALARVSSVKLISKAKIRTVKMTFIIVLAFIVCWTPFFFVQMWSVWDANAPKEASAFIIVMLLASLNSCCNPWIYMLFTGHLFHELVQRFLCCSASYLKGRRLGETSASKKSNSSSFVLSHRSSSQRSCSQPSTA
As to the kind of experiment: Oxytocin binding in CHO cell membranes expressing human oxytocin receptors ([3H]oxytocin radioligand binding). To be noted: 100 nM. The text has this: Chinese Hamster Ovary (CHO) cells stably transfected with the human oxytocin recptor (cf. Tanizawa et al., U.S. Pat. No. 5,466,584 (1995) to Rohto Pharmaceutical Co. Ltd., Osaka, Japan) were obtained from M. Thibonnier, Case Western Reserve University School of Medicine, Cleveland, Ohio.
CHO cells transfected with the human oxytocin receptors obtained from M. Thibonnier (pcDNA3.1 vector) are allowed to grow to confluency (approx. >90%) in T-150 flasks under sterile conditions, in a cell culture medium consisting of F-12 Nutrient Mixture (HAM) with L-glutamine (Gibco Cat. #11765-054) containing 15 mM HEPES (Gibco Cat. #15630-080), 1% antibiotic/antimycotic (add 5 mL 1 00×, Gibco Cat. #15240-062 per 500 mL F-12), 400 μg/mL of Geneticin (add 4 mL of 50 mg/mL per 500 mL F-12) and 10% Fetal Bovine Serum (Qualified, heat inactivated, Gibco Cat. #16140-063). The medium is removed by aspiration and the cells are washed with 10 mL of Hank's Balanced Salt solution (Gibco Cat. #14175-095). The salt solution is removed by aspiration and the cells trypsinized with 5 mL of trypsin-EDTA (0.05% trypsin, 0.53 mM EDTA-4Na, Gibco Cat. #25300-070) for 1 min The trypsin is removed by aspiration and the cells dislodged by tapping. Cell Culture medium (e.g. 30 mL for 1:30 split) is immediately added and mixed well to inactivate trypsin. 1 mL of detached cells is added to new culture flasks containing fresh Cell Culture medium (e.g. into 25 mL per T-150 flask), and mixed gently. The cells are incubated at 37° C. in 5% CO2. The medium is changed at 3 to 4 days interval (or as appropriate). The cells grow to confluency (approx. >75%-95%) within 7-8 days. All steps are done under sterile conditions.
The cells are washed twice gently with Hank's Balanced Salt solution (eg, use 10 mL per T-150 flask). The excess solution is removed and the cells bathed for 15-30 min. in an enzyme-free Cell Dissociation Buffer (eg, use 8 mL Hank's Based, Gibco Cat. #13150-016 per T-150 flask) until cells are loosened. The contents are transferred to centrifuge tubes (50 mL size) kept in ice bath. All subsequent steps are done at 4° C. The tubes are centrifuged at 300×g for 15 min (1380 rpm on SORVAL, Model RT6000D, using rotor for 50 mL tubes). The supernatant is discarded and the cells suspended in homogenizing buffer (10 mM Tris-HCl containing 0.25 M sucrose and 1 mM EDTA, pH 7.4) ensuring that the volume of the buffer is about ten times the volume of the cell pellet. The cells are pooled into a centrifuge tube (50 mL) and homogenized with a Polytron at setting 6 for 10 sec. The homogenate is transferred into a Potter-Elvjehm homogenizer and homogenized with 3 strokes. The homogenate is centrifuged at 1500×g for 10 min at 4° C. (3100 rpm using SORVAL, model RT6000D, using rotor for 50 mL tubes). The pellet is discarded. The supernatant is centrifuged at 100,000×g for 60 min. at 4° C. (Beckman L8-80M ultracentrifuge; spin at 37,500 rpm with rotor type 70 Ti for 50 mL tubes; 38,000 rpm with type 80 Ti for 15 mL tubes; or 35,800 rpm with rotor type 45Ti). The supernantant is discarded and the pellet suspended in 3 to 4 mL of Tris buffer (50 mM TRIS-HCl, pH 7.4). The protein content is estimated by the Bradford or Lowry method. The volume of the membrane suspension is adjusted with the membrane buffer (50 mM Tris-HCl containing 0.1% BSA and 0.1 mM PMSF) to give 3.0 mg/mL (or as appropriate) of protein. The membranes are aliquoted and stored at −70° C.
In wells of a 96-well format microtiter plate, is added 90, 110 or 130 μL (to make up a final volume of 200 μL) of assay buffer containing 50 mM of Tris-HCl (pH 7.4), […], 1 mg % aprotinin, 1 mg % leupeptin, 2 mg % 1,10-phenanthroline, 10 mg % trypsin inhibitor, and 0.1 mM PMSF. The inhibitors are added on the day of the experiment. The components are mixed at room temperature, and then kept in ice bath following adjustment of the pH to 7.4. […]
`Cc1cc(C(=O)N2Cc3ccc(C(=O)NCCN4CCCCC4)n3Cc3ccccc32)ccc1C1=CCCCC1` [Example 20, 10-[4-(1-Cyclohex-1-en-1-yl)-3-methylbenzoyl]-N-[2-(1-piperidinyl)ethyl]-10,11-dihydro-5H-pyrrolo[2,1-c][1,4]benzodiazepine-3-carboxamide]: the “OT % inhibition @ 100 nM” value turned out to be 52%.

As for `Cc1cc(C(=O)N2Cc3ccc(C(=O)NCCC4CCCN4C)n3Cc3ccccc32)ccc1C1=CCCCC1` (stereo not drawn) [Example 21, 10-[4-(1-Cyclohex-1-en-1-yl)-3-methylbenzoyl]-N-[2-(1-methyl-2-pyrrolidinyl)ethyl]-10,11-dihydro-5H-pyrrolo[2,1-c][1,4]benzodiazepine-3-carboxamide], the “OT % inhibition @ 100 nM” value is 57%.

Take `Cc1cc(C(=O)N2Cc3ccc(C(=O)N4CCN(CCN(C)C)CC4)n3Cc3ccccc32)ccc1C1=CCCCC1` [Example 22, {10-[4-(1-Cyclohex-1-en-1-yl)-3-methylbenzoyl]-10,11-dihydro-5H-pyrrolo[2,1-c][1,4]benzodiazepin-3-yl}{4-[2-(dimethylamino)ethyl]-1-piperazinyl}methanone]: the “OT % inhibition @ 100 nM” value stood at 92%.

Regarding `Cc1cc(C(=O)N2Cc3ccc(C(=O)N4CCN(CCN5CCOCC5)CC4)n3Cc3ccccc32)ccc1C1=CCCCC1` [Example 23, {10-[4-(1-Cyclohex-1-en-1-yl)-3-methylbenzoyl]-10,11-dihydro-5H-pyrrolo[2,1-c][1,4]benzodiazepin-3-yl}{4-[2-(4-morpholinyl)ethyl]-1-piperazinyl}methanone], the “OT % inhibition @ 100 nM” value was 79%.

Turning to `C=CCN1CCN(C(=O)c2ccc3n2Cc2ccccc2N(C(=O)c2ccc(C4=CCCCC4)c(C)c2)C3)CC1` [Example 24, (4-Allyl-1-piperazinyl){10-[4-(1-cyclohex-1-en-1-yl)-3-methylbenzoyl]-10,11-dihydro-5H-pyrrolo[2,1-c][1,4]benzodiazepin-3-yl}methanone], the “OT % inhibition @ 100 nM” value turned out to be 68%.

For `Cc1cc(C(=O)N2Cc3ccc(C(=O)N4CCN(C(C)C)CC4)n3Cc3ccccc32)ccc1C1=CCCCC1` [Example 25, {10-[4-(1-Cyclohex-1-en-1-yl)-3-methylbenzoyl]-1 0,11-dihydro-5H-pyrrolo[2,1-c][1,4]benzodiazepin-3-yl}(4-isopropyl-1-piperazinyl)methanone], the “OT % inhibition @ 100 nM” value is 71%.

Regarding `Cc1cc(C(=O)N2Cc3ccc(C(=O)N4CCC[C@H]4CN4CCCC4)n3Cc3ccccc32)ccc1C1=CCCCC1` [Example 26, {10-[4-(1-Cyclohex-1-en-1-yl)-3-methylbenzoyl]-10,11-dihydro-5H-pyrrolo[2,1-c][1,4]benzodiazepin-3-yl}[(2S)-2-(1-pyrrolidinylmethyl)pyrrolidinyl]methanone], the “OT % inhibition @ 100 nM” value is on record as 101%.

Take `Cc1cc(C(=O)N2Cc3ccc(C(=O)N4CC[C@@H](N(C)C)C4)n3Cc3ccccc32)ccc1C1=CCCCC1` [Example 27, {10-[4-(1-Cyclohex-1-en-1-yl)-3-methylbenzoyl]-10,11-dihydro-5H-pyrrolo[2,1-c][1,4]benzodiazepin-3-yl}[(3R)-3-(dimethylamino)pyrrolidinyl]methanone]: the “OT % inhibition @ 100 nM” value is listed as 100%.

Staying with this assay, now noted: value in parentheses, read-out: OT (IC50).
Turning to “{10-[4-(1-Cyclohexen-1-yl)-3-methylbenzoyl]-10,11-dihydro-5H-pyrrolo[2,1-c][1,4]benzodiazepin-3-yl}(4-methyl-piperazin-1-yl)methanone [Example 12]”, the IC50 amounted to 32.6 nM.

As usually defined, the IC50 is the concentration needed to halve the response being measured.
